Reference: patent US10508113B2, “Inhibitors of tyrosine kinase 2 mediated signaling” (AbbVie Inc., priority 2018, dated 2019)

How the values were obtained:
Jak1 = target: T1, Jak1 (Homo sapiens, UniProt P23458); assay: Jak1 (PSTAT3 TF1) alpha screen assay: inhibition of IL-6 induced phosphorylation of STAT3 in TF1 cells; type: cell-based; settings: calculated from tabulated EC50 data (Jak1 / Tyk2)
T1 construct: endogenous in cells; host or cells: TF1 cells
Procedure: 2. JAK1 (PSTAT3 TF1) ALPHA SCREEN ASSAY
IL-6 is known to transduce its signal through IL-6 receptor via Jak1. Activity against Jak1 was therefore measured by determining inhibition of IL-6 induced phosphorylation of STAT3 in TF1 cells.
Cell Type: TF1 Cells; Culture Medium: RPMI 1640 Medium, 2mM L-glutamine, 10% heat- inactivated fetal bovine serum (FBS), 10 mM hydroxyethyl piperazineethanesulfonic acid (HEPES), and 2 ng/mL recombinant human interleukin-6(IL-6); Assay Medium: Dulbecco's Modified Eagle Medium (DMEM) medium with 2 mM L-glutamine, 10 mM HEPES, 100 U/mL penicillin/streptomycin, 1.5 g/L sodium bicarbonate, 4.5 g/L glucose, 1 mM sodium pyruvate, 10% heat-inactivated FBS; Compound Preparation: Compounds are dissolved in 100% dimethyl sulfoxide (DMSO).
Day One—Starve Cells: 4 Flasks for one 384 plate (spin down @1000 rpm for 10 minutes and add RPMI 1640 Medium, 2 mM L-glutamine, 10% FBS, 10 mM HEPES with no IL-6 -incubate overnight).
(§1) Day Two—Compound Dilutions:
i. Manual 8-point 1:5 dilution curve: 5 mM top concentration dispensed in row A of a
Corning 96-well polypropylene plate, columns 2-12. DMSO dispensed in position A01 for low and high controls. Compounds were serially diluted 1:5 by adding 10 μL stock to […] DMSO down the plate.
ii. Media dilution of compounds: Serially diluted compounds were further diluted 1:12.5 in assay medium by adding 4 μL compound to 46 μL assay medium in a Corning 96-well polypropylene plate.
384 Alpha Screen Plate Set up: Transfer 2.5 μL/well of compound solution from assay media dilution plate. Replicates were vertical, one column of the 96-well dilution plate goes into one column on the 384-well plate twice. Plated 1×10^5 starved cells/well in 5 μL. Washed cells in 10 mL DMEM medium after spinning down. Brought cell pellet up in assay media. Counted live cells. Multiplied by dilution factor and 10,000 (constant) to get the concentration of viable cells. Multiplied by volume of assay media used to bring up cells to get the total number of live cells. Divided by 20,000,000 cells/mL to get the volume needed. Cells were plated at 5 μL/well in gray Alpha Screen 384-well plate. Spinned the plate to bring the contents to the bottom of the wells at 300 rpm for 60 seconds. Top final compound concentration: 25 μM. Sealed with adhesive and tapped gently. Incubated plate at 37° C. for 30 minutes. c. IL-6 Stimulation (pSTAT3)
Once cells were in incubator, immediately prepared working stock of IL-6 (100 ng/mL final concentration). IL-6 stock=10 μg/mL of IL-6 in phosphate buffered saline with 0.1% bovine serum albumin. Diluted 1:25 by adding 60 μL stock IL-6 to 1440 μL assay media. Added 2.5 μL IL-6 to each well. Spinned plate at 300 rpm briefly; tapped the plate gently before covering with an adhesive seal. Incubated plate at 37° C. for 30 minutes.
Added 2.5 μL of 5X Lysis buffer to each well. Incubated at room temperature on orbital shaker for 10 minutes.
e. Protein (A) Acceptor Beads Preparation:
(§2) Phosphorylated Signal Transducer and Activator of Transcription 3 (pSTAT3) was quantified using the PerkinElmer SureFire pSTAT3 (Tyrosine 705) Assay. Calculated total volume needed (wells×154 μL×25%). Divided total volume by 5 to get volume of activation buffer. Subtracted volume of activation buffer from total volume and divide by 40 to get volume of acceptor beads (add last). Total volume−acceptor bead volume−activation buffer=volume of reaction buffer. Added 15 μL to each well and covered with foil. Shaked on orbital shaker for 2 hours at 500 rpm.
(§3) f. Streptavidin Donor Beads Preparation:
Calculated total volume needed (wells×[…]×25%). Divided total volume by 20 to get volume of donor beads (add last). Subtracted volume of donor beads from total volume to get volume of dilution buffer. Added 6 μL to each well and covered with foil. Shaked on orbital shaker overnight at 500 rpm.
Read plate on a Perkin Elmer Envision. […]

Jak2 = target: T2, Jak2 (Homo sapiens, UniProt O60674); assay: Jak2 (PSTATS UT7) alpha screen assay: inhibition of EPO induced phosphorylation of STAT5 in UT7 cells; type: cell-based; settings: calculated from tabulated EC50 data (Jak2 / Tyk2)
T2 construct: Cell Type: UT7 cells engineered to express the erythropoietin (EPO) receptor; endogenous in cells; host or cells: UT7 cells engineered to express the EPO receptor
Procedure: 3. JAK2 (PSTATS UT7) ALPHA SCREEN ASSAY
Erythropoietin (EPO) is known to transduce its signal through EPO receptor via Jak2. Activity against Jak2 was therefore measured by determining inhibition of EPO induced phosphorylation of STATS in UT7 cells. […] Materials
Cell Type: UT7 cells engineered to express the erythropoietin (EPO) receptor; Culture Medium: Dulbecco's Modified Eagle Medium (DMEM) with 2 mM L-glutamine, 10 mM hydroxyethyl piperazineethanesulfonic acid (HEPES), 10% heat-inactivated fetal bovine serum (FBS) and Stock EPO (5000U in 250 uL, need 5U/mL, so add 250 μL to 1L of media); Assay Medium: 5% FBS ultra-low IgG and 1% Pen/Strep. Compounds were made-up in 100% dimethyl sulfoxide (DMSO).
Day One - Starve Cells: 4 Flasks for one 384 plate (spin down @1000 rpm for 10 minutes and add DMEM with no EPO).
as §1
i. Manual 8-point 1:3 dilution curve: 5 mM top concentration dispensed in row A of a
Corning 96-well polypropylene plate, columns 2-12. DMSO dispensed in position A01 for low and high controls. Compounds were serially diluted 1:3 by adding 10 μL stock to 20 μL DMSO down the plate.
ii. Media dilution of compounds: Serially diluted compounds were diluted 1:50 in assay medium by adding 4 μL compound to 196 μL assay medium in a Corning 96-well polypropylene plate.
384 Alpha Screen Plate Set up: Transferred 2.5 μL/well of compound solution from last dilution plate. Replicates were vertical, so that one column of the 96-well dilution plate goes into one column on the 384-well plate twice. Plated 1×10^5 starved cells/well in 5μL. Washed cells in 10 mL Hank's balanced salt solution (HBSS) after spinning down. Counted live cells. Multiplied by dilution factor and 10,000 (constant) to get the concentration of viable cells. Multiplied by volume of cells to get the total number of live cells. Divided by 20,000,000 cells/mL to get the volume needed. Subtracted the original volume to get the volume to be added to get the final concentration of cells. Mixed in reservoir if needed, ensuring that all cell clumps are broken up (if not broken up, they were removed from the suspension). Cells were plated at 5 μL/well in gray Alpha Screen 384-well plate. Spinned the plate to bring the contents to the bottom of the wells at 400 rpm for 2 minutes. Top final compound concentration: 25 μM. Sealed with adhesive and tapped gently. Incubated cells at 37° C. for 30 minutes.
c. EPO Stimulation (p STATS)
Once cells were in incubator, immediately prepared working stock of EPO (1 nM final assay concentration). EPO stock=2860 nM of sterile filtered liquid in sodium citrate buffer (1 liter of ddH2O containing 5.9 g of sodium citrate, 5.8 g of sodium chloride and 0.06 g of citric acid). Diluted 1:22.72 by adding 4.44 stock EPO to 95.6 pi assay media, then dilute again […] depending on how much volume is needed for the assay plates. Used assay medium to bring to volume. Added 2.5 μL EPO to each well. Spinned plate at 400 rpm briefly; tap the plate gently before covering with an adhesive seal. Cells were incubated at 37° C. for 20 minutes.
Added 2.5 μL of 5X Lysis buffer to each well. Spinned plate at 400 rpm briefly. Incubated at room temperature (on orbital shaker) for 10 minutes.
e. Protein (A) Acceptor Beads Preparation: (Light sensitive)
as §2, with “5 (pSTAT5)” for “3 (pSTAT3)”, “pSTATS” for “pSTAT3”, “694/699)” for “705)”, “(wells×15 μL×30%).” for “(wells×154 μL×25%).”, “volume - acceptor” for “volume−acceptor”, “volume - activation buffer to get volume” for “volume−activation buffer=volume”
as §3
Calculated total volume needed (wells×6μL×30%). […]

T2 sequence (O60674 whole entry): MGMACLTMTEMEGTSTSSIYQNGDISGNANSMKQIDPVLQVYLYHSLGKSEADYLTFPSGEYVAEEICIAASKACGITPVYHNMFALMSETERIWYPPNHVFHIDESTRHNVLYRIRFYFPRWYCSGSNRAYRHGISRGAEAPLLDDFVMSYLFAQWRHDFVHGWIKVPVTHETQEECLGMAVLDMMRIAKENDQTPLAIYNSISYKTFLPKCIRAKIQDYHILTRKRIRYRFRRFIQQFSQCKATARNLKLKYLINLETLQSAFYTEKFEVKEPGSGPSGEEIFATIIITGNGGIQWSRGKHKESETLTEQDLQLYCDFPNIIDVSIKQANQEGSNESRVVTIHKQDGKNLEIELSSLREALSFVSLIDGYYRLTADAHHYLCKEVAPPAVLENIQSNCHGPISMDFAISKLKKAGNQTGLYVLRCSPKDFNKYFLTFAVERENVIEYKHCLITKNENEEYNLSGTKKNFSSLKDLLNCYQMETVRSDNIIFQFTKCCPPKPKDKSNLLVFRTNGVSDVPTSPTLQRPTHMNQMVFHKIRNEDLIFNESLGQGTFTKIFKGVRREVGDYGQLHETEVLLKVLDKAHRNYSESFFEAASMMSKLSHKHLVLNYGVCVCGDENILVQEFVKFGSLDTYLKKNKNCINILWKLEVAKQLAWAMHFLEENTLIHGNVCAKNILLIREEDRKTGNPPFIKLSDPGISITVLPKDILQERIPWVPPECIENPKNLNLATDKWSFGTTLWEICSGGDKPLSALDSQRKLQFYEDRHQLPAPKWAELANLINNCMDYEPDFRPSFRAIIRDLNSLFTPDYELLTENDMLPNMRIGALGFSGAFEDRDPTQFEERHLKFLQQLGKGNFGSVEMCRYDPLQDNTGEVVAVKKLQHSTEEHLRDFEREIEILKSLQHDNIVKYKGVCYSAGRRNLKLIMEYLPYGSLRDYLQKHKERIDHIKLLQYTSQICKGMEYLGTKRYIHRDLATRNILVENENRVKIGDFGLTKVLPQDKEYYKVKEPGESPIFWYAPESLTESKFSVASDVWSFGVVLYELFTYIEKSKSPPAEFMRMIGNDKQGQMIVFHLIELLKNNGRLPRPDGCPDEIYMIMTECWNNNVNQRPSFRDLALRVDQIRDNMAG
T1 sequence (P23458 whole entry): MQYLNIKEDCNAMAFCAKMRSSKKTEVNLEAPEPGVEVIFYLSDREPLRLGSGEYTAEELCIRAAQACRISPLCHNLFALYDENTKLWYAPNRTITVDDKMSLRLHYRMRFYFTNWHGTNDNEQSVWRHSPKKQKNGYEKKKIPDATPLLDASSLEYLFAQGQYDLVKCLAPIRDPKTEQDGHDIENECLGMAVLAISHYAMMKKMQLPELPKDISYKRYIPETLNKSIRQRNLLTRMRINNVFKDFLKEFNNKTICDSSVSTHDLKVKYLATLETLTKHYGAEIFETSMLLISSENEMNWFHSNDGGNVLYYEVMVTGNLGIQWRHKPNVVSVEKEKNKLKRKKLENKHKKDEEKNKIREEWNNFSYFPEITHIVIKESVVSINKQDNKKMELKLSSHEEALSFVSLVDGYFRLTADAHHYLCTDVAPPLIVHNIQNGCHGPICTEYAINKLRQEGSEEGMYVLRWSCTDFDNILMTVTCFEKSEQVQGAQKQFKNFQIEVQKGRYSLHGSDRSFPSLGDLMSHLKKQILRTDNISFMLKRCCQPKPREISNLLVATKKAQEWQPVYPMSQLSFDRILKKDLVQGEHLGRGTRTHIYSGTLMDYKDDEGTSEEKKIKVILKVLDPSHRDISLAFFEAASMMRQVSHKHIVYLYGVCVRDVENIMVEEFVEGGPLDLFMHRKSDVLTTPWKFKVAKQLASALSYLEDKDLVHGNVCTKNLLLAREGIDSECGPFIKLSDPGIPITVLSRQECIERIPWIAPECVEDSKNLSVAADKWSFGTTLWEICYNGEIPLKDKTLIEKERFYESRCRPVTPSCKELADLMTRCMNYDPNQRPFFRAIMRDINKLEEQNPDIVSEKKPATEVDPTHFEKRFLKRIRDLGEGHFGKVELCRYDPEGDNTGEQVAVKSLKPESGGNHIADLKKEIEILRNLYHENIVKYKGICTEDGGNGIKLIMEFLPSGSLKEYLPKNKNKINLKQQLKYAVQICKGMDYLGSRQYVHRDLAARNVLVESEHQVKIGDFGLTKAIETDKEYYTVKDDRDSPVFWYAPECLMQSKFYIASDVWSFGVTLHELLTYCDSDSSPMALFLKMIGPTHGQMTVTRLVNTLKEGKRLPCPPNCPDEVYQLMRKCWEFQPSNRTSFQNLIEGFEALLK

| Tyk2 selectivity over Jak1 (Jak1) | Tyk2 selectivity over Jak2 (Jak2) | SMILES |
| --- | --- | --- |
| 393-fold | >281-fold | CO[C@@]1(c2cc(OC(F)F)cc(-c3cn(C)c4cnc(NC(C)=O)cc34)n2)CCOC1 [Example 22.2, (R)-N-(3-(4-(difluoromethoxy)-6-(3-methoxytetrahydrofuran-3-yl)pyridin-2-yl)-1-methyl-1H-pyrrolo[2,3-c]pyridin-5-yl)acetamide] |
| 310-fold | >144-fold | CO[C@@]1(c2cc(C(F)F)cc(-c3cn(C4COC4)c4cnc(NC(C)=O)cc34)n2)CCOC1 [Example 4.3, (R)-N-(3-(4-(difluoromethyl)-6-(3-methoxytetrahydrofuran-3-yl)pyridin-2-yl)-1-(oxetan-3-yl)-1H-pyrrolo[2,3-c]pyridin-5-yl)acetamide] |
| 486-fold | >171-fold | CO[C@@]1(c2cc(OC[C@H](C)O)cc(-c3cn(C)c4cnc(NC(C)=O)cc34)n2)CCOC1 [Example 14.5, N-(3-(4-((S)-2-hydroxypropoxy)-6-((R)-3-methoxytetrahydrofuran-3-yl)pyridin-2-yl)-1-methyl-1H-pyrrolo[2,3-c]pyridin-5-yl)acetamide] |
| 54-fold | >176-fold | COC1(c2cccc(-c3cn(C)c4cnc(NC(N)=O)cc34)n2)COC1 [Example 1b.4, 1-(3-(6-(3-methoxyoxetan-3-yl)pyridin-2-yl)-1-methyl-1H-pyrrolo[2,3-c]pyridin-5-yl)urea] |
| 385-fold | >641-fold | COc1cc(-c2cn(C)c3cnc(NC(N)=O)cc23)nc([C@]2(OC)CCOC2)c1 [Example 12.6, (R)-1-(3-(4-methoxy-6-(3-methoxytetrahydrofuran-3-yl)pyridin-2-yl)-1-methyl-1H-pyrrolo[2,3-c]pyridin-5-yl)urea] |
| >730-fold | >182-fold | COCc1cc(-c2cn(C3COC3)c3cnc(NC(C)=O)cc23)nc([C@]2(OC)CCOC2)c1 [Example 4, (R)-N-(3-(4-(methoxymethyl)-6-(3-methoxytetrahydrofuran-3-yl)pyridin-2-yl)-1-(oxetan-3-yl)-1H-pyrrolo[2,3-c]pyridin-5-yl)acetamide] |
| 72-fold | >171-fold | COCc1cc(-c2cn(C)c3cnc(NC(C)=O)cc23)nc([C@]2(CO)CCOC2)c1 [Example 22, (S)-N-(3-(6-(3-(Hydroxymethyl)tetrahydrofuran-3-yl)-4-(methoxymethyl)pyridin-2-yl)-1-methyl-1H-pyrrolo[2,3-c]pyridin-5-yl)acetamide] |
| 243-fold | >1786-fold | CC[C@@]1(c2cccc(-c3cn(C)c4cnc(NC(N)=O)cc34)n2)CCOC1 [Example 3.2, (S)-1-(3-(6-(3-ethyltetrahydrofuran-3-yl)pyridin-2-yl)-1-methyl-1H-pyrrolo[2,3-c]pyridin-5-yl)urea] |
| 420-fold | >500-fold | CO[C@@]1(c2cc(OCC3COC3)cc(-c3cn(C)c4cnc(NC(C)=O)cc34)n2)CCOC1 [Example 6, (R)-N-(3-(6-(3-Methoxytetrahydrofuran-3-yl)-4-(oxetan-3-ylmethoxy)pyridin-2-yl)-1-methyl-1H-pyrrolo[2,3-c]pyridin-5-yl)acetamide] |

| SMILES | Tyk2 selectivity over Jak1 (Jak1) | Tyk2 selectivity over Jak2 (Jak2) |
| --- | --- | --- |
| CO[C@@]1(c2cc(O[C@H]3C[C@H](O)C3)cc(-c3cn(C)c4cnc(NC(C)=O)cc34)n2)CCOC1 [Example 11, N-(3-(4-((trans)-3-Hydroxycyclobutoxy)-6-((R)-3-methoxytetrahydrofuran-3-yl)pyridin-2-yl)-1-methyl-1H-pyrrolo[2,3-c]pyridin-5-yl)acetamide] | 442-fold | >481-fold |
